Laboratory results as given in patent publication US11357748B2, “Methods for treating mendelian disorders of the epigenetic machinery” (THE JOHNS HOPKINS UNIVERSITY, priority 2014, dated 2022).
“Also recorded” adds a separate entry of the source.

What was measured:
[1] = system: DCX positive cells in the GCL (neurogenesis); experiment: Doublecortin (DCX) expression in the GCL (neurogenesis) after oral AR-42; assay type: in vivo, mouse
From the text: Kmt2d^+/βGeo mice, also named Mll2Gt^(RRt024) Byg, were acquired from Bay Genomics (University of California). All experimental mice were on a mixed C57BL/6J and 129/SvEv background. Expected Mendelian ratios were observed when heterozygous animals were bred to wild-type. In heterozygous crosses, however, there was uniform embryonic lethality of homozygotes by ED 12, the earliest developmental stage assayed. For treatment with AR-42, mice were orally gavaged daily with drug (Selleck Chemicals, Houston, Tex.) solubilized in vehicle (0.5% methylcellulose, 0.1% Tween-80, water) or with vehicle alone. Drug delivery information was kindly provided by Drs. Chen and Kulp from Ohio State University (Huang et al. (2011) Mol. Pharmacol. 79:197-20619). Drug was administered for 14 days and mice were sacrificed on day 15. Morris water maze testing was initiated at day 7 and a dose of 10 mg/kg/day was used for these studies. For quantification of DCX positive cells, doses of 0, 5, 10 and 25 mg/kg/day were used. Genotyping was performed using primers B-GeoF-([…]; SEQ ID NO: 1) and B-GeoR-([…]; SEQ ID NO: 2) that are specific for the targeted allele and TcrdF-([…]; SEQ ID NO: 3) and TcrdR-([…]; SEQ ID NO: 4) that control for sufficient DNA concentration. Real-time PCR using the same primers allows discrimination between the heterozygous and homozygous state for the targeted allele. Maxillary protrusion was evaluated by ten investigators blinded to genotype and they were asked to rate maxillary protrusion on radiographs as either large (2) or small (1). […] All experiments were performed using mouse protocols approved by the Animal Care and Use Committee of Johns Hopkins University School of Medicine. The mouse protocols used for this study are in accordance with the guidelines used by the NIH for mouse care and handling.
Every 6th brain section was selected and then blocked with 5% Bovine Serum Albumin (BSA) at room temperature followed by incubation with primary antibodies overnight at 4° C. Secondary antibodies were then applied for 1 hour at room temperature, after which sections were mounted onto microscope slides with Vectamount with DAPI (Vector Laboratories, Burlingame, Calif.). Primary antibodies included Doublecortin (DCX) (SC-8066, Santa Cruz Biotechnology, Dallas, Tex., 1:200 goat), trimethylated H3K4 (9727L, Cell Signaling Technology, Beverly, Mass., 1:500 rabbit), and Kmt2d H-300 (SC-292359, Santa Cruz Biotechnology, Dallas, Tex., 1:500 rabbit). Non-specific binding was not observed when sections were sequentially exposed to serum (or IgG when appropriate) from the same species as the primary antibody for each experiment (i.e. rabbit for KMT2D and H3K4me3 and goat for doublecortin), followed by the secondary antibody used for KMT2D and H3K4me3 (anti-rabbit) or doublecortin (anti-goat, FIG. 29).
The area of both the GCL and DCX+ cells was measured using the NS elements 2.0 software (Nikon, Tokyo, JPN). Normalized DCX area was calculated by measuring the DCX+ area of the GCL and setting the baseline (Kmt2d^+/+) fraction to 1. A Student t-test with significance value set at P<0.05 was used for comparison of DCX+ area referenced to GCL area between genotypes and treatment arms.

[2] = system: genome-wide H3K4me3 in spleen cells; experiment: ChIP-seq of H3K4me3 in spleen cells of treated mice; assay type: in vivo, mouse; details: 10 mg/kg/day; vs Kmt2d+/+ littermates on vehicle; FIG. 25E, 27B
Method: Spleens were dissected from eight mice, four from each kmt2d genotype (+/βGeo or +/+) where half of each genotype was treated with AR-42 and half with vehicle only. Spleens were minced and passed through a 40 µm cell strainer to obtain single cell suspensions. 10 million cells were used for each ChIP-seq experiment following the native chromatin immunoprecipitation protocol, as previously described (Gilfillan et al. (2012) BMC Genomics 13:645), using a ChIP-grade antibody against H3K4me3 (9727, Cell Signaling Technology, Beverly, Mass.).
Sequencing was performed using a MiSeq system (Illumina, San Diego, Calif.). 4.8-9.6 million paired-end 26 bp reads were obtained per sample (Table 2; nReads=number of reads, alignRate=fraction aligned to genome; FRIP=fraction of reads in peaks). Reads were aligned to the m. musculus genome, version mm 10, using Bowtie 2 (Langmead and Salzberg (2012) Nat. Methods. 9: 357-9). Each sample was examined with regard to alignment rate as well as FRIP (fraction of reads in peaks), a measure of the ChIP efficiency (Table 2). […] For analysis, reads were merged into one meta-sample and peak calling was performed using MACS version 1.4.2 (Zhang et al. (2008) Genome Biol. 9: R137). […] This created a peak by sample matrix of read counts. […] Fold change and overall abundance was calculated as per edgeR. […]

CC(C)[C@H](C(=O)Nc1ccc(C(=O)NO)cc1)c1ccccc1 [AR-42, (S)—N-hydroxy-4-(3-methyl-2-phenylbutanamido)benzamide]
DCX expression in the GCL ([1]; 10 mg/kg/day, older (5-6 months) Kmt2d+/βGeo mice, FIG. 24D): improved | difference in normalized DCX expression between mutant and wild-type animals ([1]; 10 mg/kg/day, one to two month old mice): no difference between mutant and wild-type animals | DCX expression in the GCL ([1]; 25 mg/kg/day, Kmt2d+/+ animals, FIG. 24C): reduced DCX expression | DCX expression in the GCL ([1]; 25 mg/kg/day, Kmt2d+/βGeo mice, FIG. 24C): did not improve DCX expression | DCX expression in the GCL ([1]; 25 mg/kg/day, young (1-2 month) and old (5-6 month) Kmt2d+/+ and Kmt2d+/βGeo mice): decreased DCX expression | DCX expression in the GCL ([1]; 5 and 10 mg/kg/day, Kmt2d+/+ (preservation) or Kmt2d+/βGeo (restoration), both age groups): preservation or restoration of DCX expression | postnatal neurogenesis in the granule cell layer of the dentate gyrus (overall statement) ([1]; mouse model of KS, ages 1-2 months and 5-6 months): beneficial effect; also recorded: rescued postnatal neurogenesis | neurogenesis (normalized DCX expression) ([1]; one to two month old Kmt2d+/βGeo mice, 0-10 mg/kg/day, FIG. 25C, 25D): dose-dependent increase in neurogenesis | genome-wide H3K4me3 in spleen cells of Kmt2d+/βGeo mice [2]: genome-wide increase in H3K4me3; also recorded: overcorrection of genome-wide H3K4me3; also recorded: improved
